Laboratory results published in patent US10570179B2, “Substituted urea depsipeptide analogs as activators of the CLPP endopeptidase” (priority 2016, dated 2020).
≈ marks a conversion by molar mass, not a printed value. Like-named read-outs stand apart in the source and are kept apart here. Numbered stars: 1 amine (or outer) side, 2 acyl side, 3 side chain; on linkers, the order of the positions; unused ones are H or OH. Bridge positions count the residues as written; N and C are the ends. Square brackets hold non-standard residues; d marks the D form. Peptide text beside a SMILES is read from it. * marks the point of attachment. Phe(3-Me) = Cc1cccc(C[C@H](N)C(=O)O)c1; Pro(4S-Me) = C[C@@H]1CN[C@H](C(=O)O)C1; Pro(4R-Me) = C[C@H]1CN[C@H](C(=O)O)C1; Hyp = O=C(O)[C@@H]1C[C@@H](O)CN1; NH(3-Cl-phenyl) = Clc1cccc(N*)c1; NH(4-Cl-phenyl) = Clc1ccc(N*)cc1; NH(4-Et-phenyl) = CCc1ccc(N*)cc1; aThr = C[C@H](O)[C@H](N)C(=O)O; Pip = O=C(O)[C@@H]1CCCCN1; CO = O=C([*:1])[*:2]

Columns and labels:
S. aureus USA 300 = assay: Minimal inhibitory concentration, microbroth dilution; assay type: cell-based; details: Staphylococcus aureus
Method: (§1) Minimal inhibitory concentrations (“MICs”) were determined using the microbroth dilution method according to Clinical Laboratory Standards Institute (CLSI; National, C.F. C. L. S., Methods for Dilution Antimicrobial Susceptibility Tests for Bacteria Grow aerobically-Seventh Edition: Approved Standard M7-A7, CLSI, Wayne, Pa., USA, 2008) and were read by visual inspection. Two fold serial dilutions of test compound in 100 μL of the appropriate broth media were first prepared in 96-well round bottom microtiter plates (Nalgene Nunc International, Rochester, N.Y., USA). An equivalent volume (100 μL) of bacterial broth inocula containing approximately 10^5 bacterial cfu/mL was added to each well to give final concentrations of test compound starting at 200 μM. The plates were then incubated aerobically at 37° C. All strains were incubated overnight. After incubations, in all cases the MIC was recorded as the lowest concentration of drug that prevented bacterial growth. The bacterial strains for which MIC was determined as described in Table 4.

S. aureus ATCC 29213 = assay: as above; assay type: cell-based; details: Staphylococcus aureus
Method: as §1

E. faecails = assay: as above; assay type: cell-based; details: Enterococcus faecalis
Method: as §1

MRSA NRS70 = assay: as above; assay type: cell-based; details: Staphylococcus aureus
Method: as §1

S. aureus ΔClpP = assay: as above; assay type: cell-based, Staphylococcus aureus; details: MIC; ClpP inactivated
Method: as §1

S. aureus ClpP (Sa-ClpP) = molecular target: T1, S. aureus ClpP (Sa-ClpP) (Staphylococcus aureus, UniProt Q2G036); assay: Casein-BODIPY digestion assay (ClpP activation); assay type: biochemical
T1 construct: made in house; host or cells: E. coli BL21 (DE3)
T1 sequence (Q2G036 whole entry): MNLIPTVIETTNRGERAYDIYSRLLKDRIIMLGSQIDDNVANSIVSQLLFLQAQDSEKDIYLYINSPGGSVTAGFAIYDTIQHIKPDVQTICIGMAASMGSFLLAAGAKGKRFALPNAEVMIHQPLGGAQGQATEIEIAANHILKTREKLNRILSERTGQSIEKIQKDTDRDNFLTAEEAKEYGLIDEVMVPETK
Method: The compounds were assayed in a casein digestion assay in order to determine their effect on ClpP activation. Briefly, the assay was carried out using S. aureus ClpP (“Sa-ClpP”) overexpressed in E. coli BL21 (DE3) and purified in a two-step process. Purity of the protein was assessed through SDS PAGE analysis. EC50 evaluations were conducted in triplicate in a 20 μl assay format using a method adapted from Maurizi et al. (Methods Enzymol. (1994) 244:314-331). Each well contained 10 μM saClpP, 25 μg/ml BODIPY FL casein (Invitrogen Corporation, San Diego, Calif.), and test compound in concentrations ranging between 0-1000 μM in assay buffer (50 mM Tris pH 8, 200 mM KCl, and 1 mM TCEP). The reaction took place at 37° C. Fluorescence (excitation 485 nm; emission 528 nm) was measured in five minute intervals over a 45 min period using a BioTek HT fluorescence microplate reader (BioTek Instruments, Inc., Winooski, Vt.). Velocity of each reaction was calculated and data was fit to a dose response curve using GraphPad Prism® software (GraphPad Software, Inc., La Jolla, Calif.). EC50 is the effective concentration of compound which causes 50% activation of S. aureus ClpP in the foregoing BODIPY FL casein assay.
Alternatively, the assay was carried out using EnzCheck Protease Assay (Molecular Probes, Catalog # E6638). The assay was performed in black 384 well, flat bottom, low volume plates (Greiner Bio-One, Monroe, N.C., catalog #784076). 10 μL of Tris.HCl buffer, pH 8.0 with 0.01% Triton X-100 was pipetted into each well using a Well-Mate (Thermo Scientific, Waltham, Mass.). 0.4 μL test compounds or controls (2% DMSO v/v) were added to each well using a Biomek FX liquid handling robot (Beckman Coulter, Indianapolis, Ind.). After addition of test compounds and controls, 10 μL of master mix containing 2 μM Sa-ClpP and 2 μM substrate (Bodipy-FL labeled casein) in Tris.HCl buffer, pH 8.0 with 0.01% (v/v) Triton X-100, was pipetted into each well. All assays were performed in triplicate, under linear velocity conditions. Increase in fluorescent signal following activation of Sa-ClpP by test compounds and controls was measured over time period of 30 mins using filters with excitation at 485±15 nm and emission at 520±25 nm on a PHERAstar FS Multilabel reader (BMG, Cary, N.C.). Instrument gains and enzyme linear velocity conditions were determined and validated using ADEP4, a known Sa-ClpP activator. Data analysis was done by measuring rate of casein degradation over time (slopes). Computed degradation rates (slopes) were normalized to positive (ADEP4) or negative (DMSO) controls. Using nonlinear regression curve fitting EC50 values and % activation were determined using the equation “log [agonist] vs. Response-variable slope (four parameters)-symmetrical” in the program Prism 6 (GraphPad Software, La Jolla, Calif. USA, www.graphpad.com).

[1] = USA300, read-out: Minimal Inhibitory Concentrations (μM) S. aureus USA 300, MIC
[2] = ATCC29213, read-out: Minimal Inhibitory Concentrations (μM) S. aureus ATCC 29213, MIC
[3] = read-out: Minimal Inhibitory Concentrations (μM) E. faecails, MIC
[4] = read-out: Minimal Inhibitory Concentrations (μM) MRSA NRS70, MIC

Structure (SMILES) | MIC (S. aureus USA 300; [1]) [µM] | MIC (S. aureus ATCC 29213; [2]) [µM] | MIC (E. faecails; [3]) [µM] | MIC (MRSA NRS70; [4]) [µM] | Minimal Inhibitory Concentrations (μM) S. aureus ΔClpP (S. aureus ΔClpP) [µM] | EC50 (S. aureus ClpP (Sa-ClpP)) [nM] | MIC (S. aureus USA 300; USA300, MIC, read-out: Minimal Inhibitory Concentrations (μM) S. aureus USA 300) [µM] | MIC (S. aureus ATCC 29213; ATCC29213, MIC, read-out: Minimal Inhibitory Concentrations (μM) S. aureus ATCC 29213) [µM] | MIC (E. faecails; MIC, read-out: Minimal Inhibitory Concentrations (μM) E. faecails) [µM] | MIC (MRSA NRS70; MIC, read-out: Minimal Inhibitory Concentrations (μM) MRSA NRS70) [µM]
Cc1cccc(C[C@H](NC(=O)Nc2cccc(Cl)c2)C(=O)N[C@@H]2C(=O)N3CCC[C@H]3C(=O)N3CCCC[C@H]3C(=O)N[C@@H](C)C(=O)N3C[C@H](C)C[C@H]3C(=O)O[C@H]2C)c1 [Compound 64, (S)-2-(3-(3-CHLOROPHENYL)UREIDO)-3-(M-TOLYL)-N-((2R,6S,8AS,14AS,20S,21S,23AS)-2,6,21-TRIMETHYL-5,8,14,19,23-PENTAOXOOCTADECAHYDRO-1H,5H,14H,19H-PYRIDO[2,1-I]DIPYRROLO[2,1-C:2′,1′-L][1]OXA[4,7,10,13]TETRAAZACYCLOHEXADECIN-20-YL)PROPANAMIDE] ({NH(3-Cl-phenyl)-CO}-[Phe(3-Me)][aThr]P[Pip]A[Pro(4R-Me)]; ester 2-C) | 1.25 (≈ 1.01 µg/mL) | 0.625 (≈ 0.504 µg/mL) | 10 (≈ 8.06 µg/mL) | 0.625 (≈ 0.504 µg/mL) | >20 | 430 ± 200 | – | – | – | –
CCc1ccc(NC(=O)N[C@@H](Cc2cccc(C)c2)C(=O)N[C@@H]2C(=O)N3C[C@H](O)C[C@H]3C(=O)N3CCCC[C@H]3C(=O)N[C@@H](C)C(=O)N3C[C@@H](C)C[C@H]3C(=O)O[C@H]2C)cc1 [Compound 65, (S)-2-(3-(4-ETHYLPHENYL)UREIDO)-N-((2S,6S,8AS,14AS,16R,20S,21S,23AS)-16-HYDROXY-2,6,21-TRIMETHYL-5,8,14,19,23-PENTAOXOOCTADECAHYDRO-1H,5H,14H,19H-PYRIDO[2,1-I]DIPYRROLO[2,1-C:2′,1′-L][1]OXA[4,7,10,13]TETRAAZACYCLOHEXADECIN-20-YL)-3-(M-TOLYL)PROPANAMIDE] ({NH(4-Et-phenyl)-CO}-[Phe(3-Me)][aThr][Hyp][Pip]A[Pro(4S-Me)]; ester 2-C) | – | – | – | – | >20 | 410 ± 100 | 0.156 (≈ 0.127 µg/mL) | 0.313 (≈ 0.255 µg/mL) | 1.25 (≈ 1.02 µg/mL) | 0.156 (≈ 0.127 µg/mL)
Cc1cccc(C[C@H](NC(=O)Nc2ccc(Cl)cc2)C(=O)N[C@@H]2C(=O)N3C[C@H](O)C[C@H]3C(=O)N3CCCC[C@H]3C(=O)N[C@@H](C)C(=O)N3C[C@@H](C)C[C@H]3C(=O)O[C@H]2C)c1 [Compound 66, (S)-2-(3-(4-CHLOROPHENYL)UREIDO)-N-((2S,6S,8AS,14AS,16R,20S,21S,23AS)-16-HYDROXY-2,6,21-TRIMETHYL-5,8,14,19,23-PENTAOXOOCTADECAHYDRO-1H,5H,14H,19H-PYRIDO[2,1-I]DIPYRROLO[2,1-C:2′,1′-L][1]OXA[4,7,10,13]TETRAAZACYCLOHEXADECIN-20-YL)-3-(M-TOLYL)PROPANAMIDE] ({NH(4-Cl-phenyl)-CO}-[Phe(3-Me)][aThr][Hyp][Pip]A[Pro(4S-Me)]; ester 2-C) | 0.313 (≈ 0.257 µg/mL) | 0.625 (≈ 0.514 µg/mL) | 1.25 (≈ 1.03 µg/mL) | 1.25 (≈ 1.03 µg/mL) | >20 | 160 ± 100 | – | – | – | –
Cc1cccc(C[C@H](NC(=O)Nc2cccc(Cl)c2)C(=O)N[C@@H]2C(=O)N3C[C@H](O)C[C@H]3C(=O)N3CCCC[C@H]3C(=O)N[C@@H](C)C(=O)N3C[C@@H](C)C[C@H]3C(=O)O[C@H]2C)c1 [Compound 67, (S)-2-(3-(3-CHLOROPHENYL)UREIDO)-N-((2S,6S,8AS,14AS,16R,20S,21S,23AS)-16-HYDROXY-2,6,21-TRIMETHYL-5,8,14,19,23-PENTAOXOOCTADECAHYDRO-1H,5H,14H,19H-PYRIDO[2,1-I]DIPYRROLO[2,1-C:2′,1′-L][1]OXA[4,7,10,13]TETRAAZACYCLOHEXADECIN-20-YL)-3-(M-TOLYL)PROPANAMIDE] ({NH(3-Cl-phenyl)-CO}-[Phe(3-Me)][aThr][Hyp][Pip]A[Pro(4S-Me)]; ester 2-C) | 2.5 (≈ 2.06 µg/mL) | 2.5 (≈ 2.06 µg/mL) | 5 (≈ 4.11 µg/mL) | 2.5 (≈ 2.06 µg/mL) | >20 | 440 ± 300 | – | – | – | –
